Measured values taken from ChEMBL document CHEMBL1201862, “PubChem BioAssay data set” (2004).
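Briefly, cells in 96-well plates were exposed to five compound concentrations for 48 h, and endpoints were estimated by linear interpolation. Abbreviation: GI50, concentration required for 50% inhibition of growth.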 Calls of active or inactive are those of the source. No stated cut-off is given here; in the data, active = GI50 up to about 1.1 µM and inactive = higher.

Key:
Assay in all cases: DTP human tumour cell line panel, 48 h
[1] = system: M14
[2] = system: NCI-H522
[3] = system: NCI/ADR-RES
[4] = system: HOP-92
[5] = system: MDA-MB-435
[6] = system: OVCAR-8
[7] = system: CCRF-CEM
[8] = system: IGROV-1
[9] = system: Malme-3M
[10] = system: U-251
[11] = system: UO-31
[12] = system: OVCAR-3
[13] = system: LOX IMVI
[14] = system: SNB-75
[15] = system: K562
[16] = system: A498
[17] = system: A549
[18] = system: UACC-257
[19] = system: 786-0
[20] = system: NCI-H226

Measured: GI50

N#Cc1ccccc1OCCOc1ccccc1C#N
inactive: [1] > 100 µM | [2] > 100 µM | [3] > 100 µM | [4] > 100 µM | [5] > 100 µM | [6] > 100 µM | [7] > 100 µM | [8] > 100 µM | [9] > 100 µM | [10] 61 µM | [11] > 100 µM | [12] > 100 µM | [13] > 100 µM | [14] 61.9 µM | [15] 20.3 µM | [16] > 100 µM | [17] > 100 µM | [18] > 100 µM | [19] > 100 µM | [20] > 100 µM

CC(=O)Oc1ccc2c3c1[C@H]1O[C@H]1c1cccc(c1-3)[C@@H]1O[C@H]21
inactive: [1] 4.81 µM | [2] 1.9 µM | [3] 10 µM | [4] 9.68 µM | [5] 2.04 µM | [6] 4.22 µM | [9] 2.72 µM | [10] 4.99 µM | [11] 3.74 µM | [12] 3.18 µM | [13] 1.81 µM | [14] 4.13 µM | [15] 5.02 µM | [16] 11.9 µM | [17] 7.33 µM | [18] 8.22 µM | [19] 2.21 µM | [20] 21.4 µM

Nc1nc(=O)n(C2CC(O)C(CO)O2)c2nc(-c3ccc(-c4ccccc4)cc3)cnc12 (centres undefined)
inactive: [1] > 100 µM | [2] 22.1 µM | [3] > 100 µM | [4] 56.2 µM | [5] 97.7 µM | [6] 67.9 µM | [7] 27.6 µM | [8] > 100 µM | [9] 41.7 µM | [10] 18.6 µM | [11] > 100 µM | [13] 38.8 µM | [14] 23 µM | [15] 38 µM | [16] > 100 µM | [17] > 100 µM | [18] > 100 µM | [19] 40.1 µM | [20] 25.6 µM

CCCCN1C(=O)N(c2ccc(OCC)cc2)C2N(CCCC)C1C(C)(C)C2(C)C (centres undefined)
inactive: [1] 25.1 µM | [2] 44.1 µM | [3] 23.5 µM | [4] 23.5 µM | [5] 20.2 µM | [6] 32.3 µM | [7] 16.3 µM | [8] 33.6 µM | [9] 24.2 µM | [10] 37 µM | [11] 27.1 µM | [12] 15.7 µM | [13] 7.71 µM | [14] 37.3 µM | [16] 35.2 µM | [17] 56.4 µM | [18] 27.5 µM | [19] 21.5 µM | [20] 20.2 µM

COC1=CCC2=C(CCN(C(=O)C3CC3)C2Cc2ccc(OC)c(O)c2)C1 (centres undefined)
inactive: [1] 45 µM | [2] 28.8 µM | [3] 19 µM | [4] 27.9 µM | [5] 23.9 µM | [6] 34 µM | [7] 34 µM | [8] 52 µM | [9] 88.9 µM | [10] 86.7 µM | [11] > 100 µM | [12] 45.4 µM | [13] 86.7 µM | [14] 14.9 µM | [15] 25.8 µM | [16] 68.5 µM | [17] 63.4 µM | [18] 47.9 µM | [19] 92.9 µM | [20] 89.3 µM

N=C(N)SCCSC(=N)N
inactive: [1] > 100 µM | [2] > 100 µM | [3] > 100 µM | [4] > 100 µM | [5] > 100 µM | [6] > 100 µM | [8] > 100 µM | [9] > 100 µM | [10] > 100 µM | [11] > 100 µM | [12] > 100 µM | [13] > 100 µM | [14] > 100 µM | [15] > 100 µM | [16] > 100 µM | [17] > 100 µM | [18] > 100 µM | [19] > 100 µM | [20] > 100 µM

COc1ccc2c(c1)N(CCC1CCCCN1C)c1ccccc1S2 (centres undefined) [OXYRIDAZINE]
inactive: [1] 3.13 µM | [2] 13.1 µM | [3] 12 µM | [4] 9.08 µM | [5] 7.62 µM | [6] 15 µM | [7] 10.1 µM | [8] 12.5 µM | [9] 18.2 µM | [10] 11.3 µM | [12] 15.6 µM | [13] 9.57 µM | [14] 11.6 µM | [15] 4.37 µM | [16] 10.8 µM | [17] 14.1 µM | [18] 5.08 µM | [19] 13.1 µM | [20] 23.6 µM
